# Source: US9346798B2, “Dihydrobenzoxazine and tetrahydroquinoxaline sodium channel inhibitors” (AMGEN INC., priority 2012, dated 2016)
# Experiments:
# Format in all cases: cell-based
# [1] = biological target: Nav 1.5 (Homo sapiens (Human), UniProt Q14524); experiment: Nav 1.5 in vitro assay, IonWorks Quattro (IWQ) population patch-clamp; conditions: HEK 293 cells stably transfected with Nav 1.5; 26th pulse to -20 mV
# [2] = biological target: T1, Nav 1.7 (Homo sapiens (Human), UniProt Q15858); experiment: Nav 1.7 in vitro assay, IonWorks Quattro (IWQ) population patch-clamp; conditions: HEK 293 cells stably transfected with Nav 1.7; 26th pulse to -20 mV
# T1 sequence (Q15858 whole entry): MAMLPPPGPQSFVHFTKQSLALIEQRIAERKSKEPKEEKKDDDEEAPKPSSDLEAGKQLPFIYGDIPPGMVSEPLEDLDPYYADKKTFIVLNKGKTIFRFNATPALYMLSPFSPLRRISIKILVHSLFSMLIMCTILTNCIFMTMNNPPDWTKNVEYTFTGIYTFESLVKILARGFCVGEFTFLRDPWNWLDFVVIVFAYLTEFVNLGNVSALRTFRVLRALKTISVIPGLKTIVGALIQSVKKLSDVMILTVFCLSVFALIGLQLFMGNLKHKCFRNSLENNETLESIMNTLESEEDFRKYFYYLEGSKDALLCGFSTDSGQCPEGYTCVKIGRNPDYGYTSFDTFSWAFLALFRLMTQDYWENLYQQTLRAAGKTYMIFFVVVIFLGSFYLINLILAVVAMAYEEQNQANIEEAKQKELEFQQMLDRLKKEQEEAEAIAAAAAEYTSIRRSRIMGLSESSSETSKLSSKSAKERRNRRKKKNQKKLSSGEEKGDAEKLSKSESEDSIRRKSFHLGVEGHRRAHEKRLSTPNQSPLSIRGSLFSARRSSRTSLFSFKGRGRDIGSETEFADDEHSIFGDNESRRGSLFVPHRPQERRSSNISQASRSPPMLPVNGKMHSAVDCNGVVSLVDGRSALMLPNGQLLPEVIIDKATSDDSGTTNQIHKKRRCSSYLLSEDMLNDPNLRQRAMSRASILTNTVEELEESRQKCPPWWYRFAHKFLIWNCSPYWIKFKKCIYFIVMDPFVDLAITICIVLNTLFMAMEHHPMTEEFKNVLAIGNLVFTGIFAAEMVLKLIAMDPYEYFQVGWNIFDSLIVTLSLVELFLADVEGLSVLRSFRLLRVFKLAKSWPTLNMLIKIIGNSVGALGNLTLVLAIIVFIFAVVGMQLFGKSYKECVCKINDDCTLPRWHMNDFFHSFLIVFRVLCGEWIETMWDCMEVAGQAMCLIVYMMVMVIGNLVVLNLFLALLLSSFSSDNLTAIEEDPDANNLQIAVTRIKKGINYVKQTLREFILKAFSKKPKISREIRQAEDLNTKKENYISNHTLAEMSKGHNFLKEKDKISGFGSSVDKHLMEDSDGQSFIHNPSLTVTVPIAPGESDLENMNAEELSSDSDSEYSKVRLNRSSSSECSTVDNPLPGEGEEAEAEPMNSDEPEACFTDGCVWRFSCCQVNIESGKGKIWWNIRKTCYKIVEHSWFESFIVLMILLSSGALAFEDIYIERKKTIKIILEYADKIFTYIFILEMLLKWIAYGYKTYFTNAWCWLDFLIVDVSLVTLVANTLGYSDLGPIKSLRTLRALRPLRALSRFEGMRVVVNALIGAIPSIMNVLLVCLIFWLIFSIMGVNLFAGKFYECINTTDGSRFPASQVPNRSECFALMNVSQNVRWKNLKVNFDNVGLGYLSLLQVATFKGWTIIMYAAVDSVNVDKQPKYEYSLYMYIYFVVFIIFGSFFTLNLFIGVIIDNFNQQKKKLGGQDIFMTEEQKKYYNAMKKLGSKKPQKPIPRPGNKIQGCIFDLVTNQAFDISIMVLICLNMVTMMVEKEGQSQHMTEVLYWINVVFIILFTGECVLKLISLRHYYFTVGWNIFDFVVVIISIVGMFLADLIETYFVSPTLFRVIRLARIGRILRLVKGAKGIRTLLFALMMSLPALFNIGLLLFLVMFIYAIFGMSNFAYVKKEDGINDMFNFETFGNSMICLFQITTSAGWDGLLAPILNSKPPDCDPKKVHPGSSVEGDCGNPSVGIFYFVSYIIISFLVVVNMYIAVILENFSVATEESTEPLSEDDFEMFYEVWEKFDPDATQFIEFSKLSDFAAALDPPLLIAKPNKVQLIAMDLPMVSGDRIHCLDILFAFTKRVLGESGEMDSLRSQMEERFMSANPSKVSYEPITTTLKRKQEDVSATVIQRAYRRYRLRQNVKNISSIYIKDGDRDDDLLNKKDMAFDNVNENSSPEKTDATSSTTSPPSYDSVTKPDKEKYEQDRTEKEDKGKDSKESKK
# Description: Nav 1.7 and Nav 1.5 In Vitro Assays
# HEK 293 cells stably transfected with either Nav 1.7 or with Nav 1.5 were recorded in population patch-clamp mode with the IonWorks® Quattro automated electrophysiology system in accordance with the manufacturer's specifications (Molecular Devices, LLC, Sunnyvale, Calif.). Sodium channel currents were measured in response to a train of depolarizations that induced successively greater inactivation.
# Cells were held at −110 mV for three seconds (Nav 1.7) or half a second (Nav 1.5) from a holding voltage of −15 mV, then put through a series of 26 pulses of 150 msec duration to −20 mV at a frequency of 5 Hz. Cells were then left unclamped for a period of 3 to 8 minutes while a single concentration of test compound was added. Cells were then reclamped and put through the same voltage protocol. Current at the end of the 26th pulse to −20 mV was subtracted from the peak current evoked by the 26th pulse to −20 mV to correct for leak current. Percent block was calculated for each concentration in duplicate, and IC50 curves were fitted to percent block as a function of concentration.
# [3] = biological target: T1, Nav 1.7; experiment: Nav 1.7 in vitro PX assay, PatchXpress whole cell voltage clamp; conditions: HEK 293 cells stably transfected with human Nav1.7; for IC50: partially inactivated state (20 to 50% inactivation); for inhibition at 4.9 µM: HEK293, values marked *, read-out: Nav 1.7 PX percent inhibition at 4.9 μM
# Method in brief: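 HEK293 cells stably expressing human Nav1.7, whole-cell voltage clamp at a holding potential giving 20–50% inactivation; currents elicited by 20 msec pulses to −10 mV at 0.1 Hz.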
# Sequence of Nav 1.5 (Q14524 whole entry): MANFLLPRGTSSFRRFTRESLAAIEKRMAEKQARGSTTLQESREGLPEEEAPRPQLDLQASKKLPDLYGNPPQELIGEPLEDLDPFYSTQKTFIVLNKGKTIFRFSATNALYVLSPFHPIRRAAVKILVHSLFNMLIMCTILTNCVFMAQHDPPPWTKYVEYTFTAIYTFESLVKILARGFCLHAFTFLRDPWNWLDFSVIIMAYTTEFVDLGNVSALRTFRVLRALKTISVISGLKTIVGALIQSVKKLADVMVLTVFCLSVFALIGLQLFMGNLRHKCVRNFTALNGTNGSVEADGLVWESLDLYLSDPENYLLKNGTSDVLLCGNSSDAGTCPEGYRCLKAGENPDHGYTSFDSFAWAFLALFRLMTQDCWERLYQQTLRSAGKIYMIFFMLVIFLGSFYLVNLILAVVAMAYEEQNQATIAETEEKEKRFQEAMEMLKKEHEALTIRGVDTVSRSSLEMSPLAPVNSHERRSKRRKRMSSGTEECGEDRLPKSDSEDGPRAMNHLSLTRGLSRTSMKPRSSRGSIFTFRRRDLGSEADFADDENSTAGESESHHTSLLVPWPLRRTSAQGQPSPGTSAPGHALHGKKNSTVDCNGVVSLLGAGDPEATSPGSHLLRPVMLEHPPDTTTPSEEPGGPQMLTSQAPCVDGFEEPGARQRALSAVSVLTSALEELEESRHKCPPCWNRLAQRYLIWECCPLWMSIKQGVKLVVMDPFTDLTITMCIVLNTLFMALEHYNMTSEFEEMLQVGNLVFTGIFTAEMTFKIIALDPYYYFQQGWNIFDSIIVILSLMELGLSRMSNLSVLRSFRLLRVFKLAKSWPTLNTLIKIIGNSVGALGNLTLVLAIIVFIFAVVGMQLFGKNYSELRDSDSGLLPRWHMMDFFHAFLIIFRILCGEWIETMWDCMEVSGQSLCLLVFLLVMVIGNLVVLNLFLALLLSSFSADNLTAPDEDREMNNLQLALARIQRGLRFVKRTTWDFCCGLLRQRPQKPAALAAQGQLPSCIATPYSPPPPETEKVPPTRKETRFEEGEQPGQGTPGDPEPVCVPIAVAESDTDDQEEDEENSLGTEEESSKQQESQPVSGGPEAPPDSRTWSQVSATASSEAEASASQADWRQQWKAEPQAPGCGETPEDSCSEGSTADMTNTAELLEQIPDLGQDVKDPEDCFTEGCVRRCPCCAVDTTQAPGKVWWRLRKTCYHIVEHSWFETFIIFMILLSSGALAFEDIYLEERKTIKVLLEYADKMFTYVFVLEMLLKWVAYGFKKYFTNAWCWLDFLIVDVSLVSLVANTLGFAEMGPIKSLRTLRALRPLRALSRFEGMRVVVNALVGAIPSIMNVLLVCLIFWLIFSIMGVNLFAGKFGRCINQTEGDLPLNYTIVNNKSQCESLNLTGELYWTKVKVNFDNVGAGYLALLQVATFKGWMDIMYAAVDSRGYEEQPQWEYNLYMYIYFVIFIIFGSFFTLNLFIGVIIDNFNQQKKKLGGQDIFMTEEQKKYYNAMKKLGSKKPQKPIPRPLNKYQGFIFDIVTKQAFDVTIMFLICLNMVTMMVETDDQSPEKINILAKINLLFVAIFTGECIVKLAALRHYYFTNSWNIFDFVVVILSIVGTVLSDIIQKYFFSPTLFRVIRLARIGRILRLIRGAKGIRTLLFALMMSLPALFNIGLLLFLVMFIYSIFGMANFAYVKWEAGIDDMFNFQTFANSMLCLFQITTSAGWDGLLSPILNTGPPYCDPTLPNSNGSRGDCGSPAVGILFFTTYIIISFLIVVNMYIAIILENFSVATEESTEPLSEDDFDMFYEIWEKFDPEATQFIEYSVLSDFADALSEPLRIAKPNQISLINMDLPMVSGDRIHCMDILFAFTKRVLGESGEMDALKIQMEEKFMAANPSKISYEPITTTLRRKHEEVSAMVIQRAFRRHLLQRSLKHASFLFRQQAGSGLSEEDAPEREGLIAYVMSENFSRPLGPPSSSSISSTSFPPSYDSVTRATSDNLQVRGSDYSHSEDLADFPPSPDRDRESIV
SMILES,IC50 [2] [nM],IC50 [3] [nM],inhibition at 4.9 µM [3] [%],IC50 [1] [nM]
"O=S(=O)(Nc1nccs1)c1ccc2c(c1)OCCN2c1ccc(C(F)(F)F)cc1C[C@H](O)CO (single isomer, unassigned) [Example 208]",18.5,258,,896
"O=S(=O)(Nc1nccs1)c1ccc2c(c1)OCCN2c1ccc(C(F)(F)F)nc1 [Example 122, N-(thiazol-2-yl)-4-(6-(trifluoromethyl)pyridin-3-yl)-3,4-dihydro-2H-benzo[b][1,4]oxazine-7-sulfonamide]",615,2900,,7030
"O=S(=O)(Nc1nccs1)c1ccc2c(c1)OCCN2c1ccc(Cl)cc1CC(O)CO (stereo not drawn) [Example 210, 4-(4-Chloro-2-(2,3-Dihydroxypropyl)Phenyl)-N-(Thiazol-2-Yl)-3,4-Dihydro-2H-Benzo[B][1,4]Oxazine-7-Sulfonamide]",12.5,226,,6110
"COc1cc(C#N)ccc1CN1CCOc2cc(S(=O)(=O)Nc3nccs3)ccc21 [Example 219, 4-(4-Cyano-2-Methoxybenzyl)-N-(Thiazol-2-Yl)-3,4-Dihydro-2H-Benzo[B][1,4]Oxazine-7-Sulfonamide]",5190,,26.2,> 10000
"CCC1CN(c2ccc(C(F)(F)F)cc2C#N)c2ccc(S(=O)(=O)Nc3nccs3)cc2O1 (single isomer, unassigned) [Example 102]",1390,8890,,> 10000
"O=S(=O)(Nc1nccs1)c1ccc2c(c1)OCCN2c1ccccc1C1CCOCC1 [Example 149, 4-(2-(Tetrahydro-2H-Pyran-4-Yl)Phenyl)-N-(Thiazol-2-Yl)-3,4-Dihydro-2H-Benzo[B][1,4]Oxazine-7-Sulfonamide]",198,2550,,> 10000
"O=S(=O)(Nc1ncns1)c1ccc2c(c1)OCCN2c1ccc(C(F)(F)F)cc1-c1ccncc1 [Example 26, 4-(2-(Pyridin-4-Yl)-4-(Trifluoromethyl)Phenyl)-N-(1,2,4-Thiadiazol-5-Yl)-3,4-Dihydro-2H-Benzo[B][1,4]Oxazine-7-Sulfonamide]",10.5,102,,306
"O=S(=O)(Nc1ncns1)c1ccc2c(c1)OCCN2c1ccc(C(F)(F)F)cc1Br [Example 1, 4-(2-Bromo-4-(Trifluoromethyl)Phenyl)-N-(1,2,4-Thiadiazol-5-Yl)-3,4-Dihydro-2H-Benzo[B][1,4]Oxazine-7-Sulfonamide]",11.3,58.9,,> 10000
"O=S(=O)(Nc1nccs1)c1ccc2c(c1)OCCN2c1cccc(OC(F)F)c1 [Example 172, 4-(3-(Difluoromethoxy)Phenyl)-N-(Thiazol-2-Yl)-3,4-Dihydro-2H-Benzo[B][1,4]Oxazine-7-Sulfonamide 2,2,2-Trifluoroacetate]",244,936,,> 10000
"O=S(=O)(Nc1ncccn1)c1ccc2c(c1)OCCN2c1ccc(C(F)(F)F)cc1C1=CCNCC1 [Example 86, N-(Pyrimidin-2-Yl)-4-(2-(1,2,3,6-Tetrahydropyridin-4-Yl)-4-(Trifluoromethyl)Phenyl)-3,4-Dihydro-2H-Benzo[B][1,4]Oxazine-7-Sulfonamide]",320,851,,2260
"O=S(=O)(Nc1nccs1)c1ccc2c(c1)OCCN2c1ccc(C(F)(F)F)cc1-c1ccncc1 [Example 53, 4-(2-(Pyridin-4-Yl)-4-(Trifluoromethyl)Phenyl)-N-(Thiazol-2-Yl)-3,4-Dihydro-2H-Benzo[B][1,4]Oxazine-7-Sulfonamide 2,2,2-Trifluoroacetate]",22.5,203,,554
"Cc1cc(N2CCOc3cc(S(=O)(=O)Nc4nccs4)ccc32)c(C)cn1 [Example 134, 4-(2,5-Dimethylpyridin-4-yl)-N-(thiazol-2-yl)-3,4-dihydro-2H-benzo[b][1,4]oxazine-7-sulfonamide]",1340,17100,,> 10000
"Cc1ccc(F)c(N2CCOc3cc(S(=O)(=O)Nc4nccs4)ccc32)c1 [Example 80, 4-(2-Fluoro-5-Methylphenyl)-N-(Thiazol-2-Yl)-3,4-Dihydro-2H-Benzo[B][1,4]Oxazine-7-Sulfonamide 2,2,2-Trifluoroacetate]",126,340,,5640
"COCCOc1ccc(N2CCOc3cc(S(=O)(=O)Nc4ncns4)ccc32)cc1 [Example 39, 4-(4-(2-Methoxyethoxy)Phenyl)-N-(1,2,4-Thiadiazol-5-Yl)-3,4-Dihydro-2H-Benzo[B][1,4]Oxazine-7-Sulfonamide]",333,9220,,> 10000
"COc1cc(C#N)ccc1N1CCOc2cc(S(=O)(=O)Nc3nccs3)ccc21 [Example 181, 4-(4-Cyano-2-Methoxyphenyl)-N-(Thiazol-2-Yl)-3,4-Dihydro-2H-Benzo[B][1,4]Oxazine-7-Sulfonamide 2,2,2-Trifluoroacetate]",7.5,175,,> 10000
"Cc1cc(C(F)(F)F)ccc1N1CCOc2cc(S(=O)(=O)Nc3nccs3)ccc21 [Example 196, 4-(2-Methyl-4-(Trifluoromethyl)Phenyl)-N-(Thiazol-2-Yl)-3,4-Dihydro-2H-Benzo[B][1,4]Oxazine-7-Sulfonamide]",396,898,,5700
"O=S(=O)(Nc1nccs1)c1ccc2c(c1)OCCN2Cc1c[nH]c2cccnc12 [Example 222, 4-((1H-Pyrrolo[3,2-B]Pyridin-3-Yl)Methyl)-N-(Thiazol-2-Yl)-3,4-Dihydro-2H-Benzo[B][1,4]Oxazine-7-Sulfonamide]",3430,,33.8,> 10000
"N#Cc1cc(C(F)(F)F)ccc1N1CCOc2c1ccc(S(=O)(=O)Nc1nccs1)c2F [Example 216, 4-(2-Cyano-4-(Trifluoromethyl)Phenyl)-8-Fluoro-N-(Thiazol-2-Yl)-3,4-Dihydro-2H-Benzo[B][1,4]Oxazine-7-Sulfonamide]",34,516,,5730

# More lines, in order of falling IC50 [2], values ahead:
IC50 [2] [nM],IC50 [3] [nM],inhibition at 4.9 µM [3] [%],SMILES,IC50 [1] [nM]
2210,,33.9,"N#Cc1cccc(Cl)c1N1CCOc2cc(S(=O)(=O)Nc3nccs3)ccc21 [Example 142, 4-(2-Chloro-6-cyanophenyl)-N-(thiazol-2-yl)-3,4-dihydro-2H-benzo[b][1,4]oxazine-7-sulfonamide]",> 10000
1280,5570,,"Cc1ccc(N2CCOc3cc(S(=O)(=O)Nc4nccs4)ccc32)cc1C#N [Example 115, 4-(3-Cyano-4-methylphenyl)-N-(thiazol-2-yl)-3,4-dihydro-2H-benzo[b][1,4]oxazine-7-sulfonamide]",7730
871,9230,,"N#Cc1ccc(N2CCOc3cc(S(=O)(=O)Nc4nccs4)ccc32)cc1 [Example 76, 4-(4-Cyanophenyl)-N-(Thiazol-2-Yl)-3,4-Dihydro-2H-Benzo[B][1,4]Oxazine-7-Sulfonamide 2,2,2-Trifluoroacetate]",6030
823,1890,,"CC1COc2cc(S(=O)(=O)Nc3nccs3)ccc2N1c1ccc(C(F)(F)F)cc1C#N (racemic) [Example 96, 4-(2-Cyano-4-(Trifluoromethyl)Phenyl)-3-Methyl-N-(Thiazol-2-Yl)-3,4-Dihydro-2H-Benzo[B][1,4]Oxazine-7-Sulfonamide]",1400
656,2650,,"O=S(=O)(Nc1nncs1)c1ccc2c(c1)OCCN2c1ccc(C(F)(F)F)cc1Cl [Example 28, 4-(2-Chloro-4-(Trifluoromethyl)Phenyl)-N-(1,3,4-Thiadiazol-2-Yl)-3,4-Dihydro-2H-Benzo[B][1,4]Oxazine-7-Sulfonamide]",> 10000
451,1340,,"Cc1cc(OC(F)(F)F)ccc1N1CCOc2cc(S(=O)(=O)Nc3nccs3)ccc21 [Example 140, 4-(2-Methyl-4-(trifluoromethoxy)phenyl)-N-(thiazol-2-yl)-3,4-dihydro-2H-benzo[b][1,4]oxazine-7-sulfonamide]",6600
233,1100,,"Cc1cc(Cl)ccc1N1CCOc2cc(S(=O)(=O)Nc3nccs3)ccc21 [Example 195, 4-(4-Chloro-2-Methylphenyl)-N-(Thiazol-2-Yl)-3,4-Dihydro-2H-Benzo[B][1,4]Oxazine-7-Sulfonamide]",> 10000
178,1490,,"N#Cc1cc(F)ccc1N1CCOc2cc(S(=O)(=O)Nc3nccs3)ccc21 [Example 177, 4-(2-cyano-4-fluorophenyl)-N-(thiazol-2-yl)-3,4-dihydro-2H-benzo[b][1,4]oxazine-7-sulfonamide]",> 10000
42.5,288,,"COc1cc(C#N)ccc1N1CC(C)Oc2cc(S(=O)(=O)Nc3nccs3)ccc21 (racemic) [Example 106, 4-(4-cyano-2-methoxyphenyl)-2-methyl-N-(thiazol-2-yl)-3,4-dihydro-2H-benzo[b][1,4]oxazine-7-sulfonamide]",> 10000
